{"source": "patent US9170261B2", "about": "“Peptide specific for ovarian cancer and applications” (National Tsing Hua University, priority 2013, dated 2015)", "key": {"[1]": {"system": "BG1 ovarian cancer cell line", "assay": "Binding activity (connectivity) of peptide-conjugated magnetic beads to cancer cells", "set-up": "species or system Human", "conditions": "10 ng/mL peptide", "protocol": "Human ovarian cancer cell line, BG1, was used. BG1 was cultured in DMEM/F12 medium containing 10% Fetal Bovine Serum (FBS). Other conditions of the culture are 37° C. and 5% CO2 in moisture atmosphere.\n(§1) 10 ng/mL of the peptide SEQ ID NO:1 of the present invention was used to examine the binding activity to different cancer cells, including pancreatic cancer cell line (BxPC3), colon cancer cell line (HCT8), cervical cancer cell line (HeLa), and liver cancer cell line (HepG2)."}, "[2]": {"system": "cervical cancer cell line (HeLa)", "assay": "Binding activity (connectivity) of peptide-conjugated magnetic beads to cancer cells", "conditions": "10 ng/mL peptide", "protocol": "(§2) Other cell lines were used in the embodiments of the present invention including pancreatic cancer cell line (BxPC3), colon cancer cell line (HCT8), cervical cancer cell line (HeLa), and liver cancer cell line (HepG2).\nas §1"}, "[3]": {"system": "colon cancer cell line (HCT8)", "assay": "Binding activity (connectivity) of peptide-conjugated magnetic beads to cancer cells", "conditions": "10 ng/mL peptide", "protocol": "as §2, §1"}, "[4]": {"system": "liver cancer cell line (HepG2)", "assay": "Binding activity (connectivity) of peptide-conjugated magnetic beads to cancer cells", "conditions": "10 ng/mL peptide", "protocol": "as §2, §1"}, "[5]": {"system": "pancreatic cancer cell line (BxPC3)", "assay": "Binding activity (connectivity) of peptide-conjugated magnetic beads to cancer cells", "conditions": "10 ng/mL peptide", "protocol": "as §2, §1"}, "ovarian cancer cells": {"system": "ovarian cancer cells", "assay": "Capturing test with peptide-conjugated magnetic beads, microscopic observation", "assay_type": "binding", "conditions": "10^5 ovarian cancer cells", "protocol": "(A) magnetic beads without peptide conjugation; (B) magnetic beads conjugated to 10 μg/mL of peptide; (C) magnetic beads conjugated to 10 ng/mL of peptide; (D) magnetic beads conjugated to 10 ρg/mL of peptide.\nDifferent concentrations of the peptide of the present invention were conjugated to magnetic beads, wherein said concentrations are 10 μg/mL, 10 ng/mL, and 10 ρg/mL. The capturing test was performed using 10^5 ovarian cancer cells."}, "other cancer cells": {"system": "other cancer cells", "assay": "Binding activity to other cancer cells (average over non-ovarian lines)", "protocol": "as §1"}}, "data": [{"substance": "N′-MPHPTKNFDLYV-C′ [peptide of the present invention]", "values": [{"measurement": "Connectivity (%)", "setting": "[1]", "result": "about 80%"}, {"measurement": "Connectivity (%)", "setting": "[1]; listed as peptide", "result": "more than 80%"}, {"measurement": "Connectivity (%)", "setting": "[1]; listed as peptide of present invention", "result": "80.38 ± 2.69", "unit": "%"}, {"measurement": "Connectivity (%)", "setting": "[2]", "result": "26.02 ± 2.01", "unit": "%"}, {"measurement": "Connectivity (%)", "setting": "[3]", "result": "22.37 ± 1.89", "unit": "%"}, {"measurement": "Connectivity (%)", "setting": "[4]", "result": "15.77 ± 5.25", "unit": "%"}, {"measurement": "Connectivity (%)", "setting": "[5]", "result": "12.89 ± 0.21", "unit": "%"}, {"measurement": "connection to ovarian cancer cells under microscopic observation", "setting": "ovarian cancer cells; peptide 10 μg/mL, 10 ng/mL and 10 ρg/mL conjugated to magnetic beads", "result": "able to connect to ovarian cancer cells"}, {"measurement": "peptide concentration required to efficiently capture ovarian cancer cells", "setting": "ovarian cancer cells; peptide conjugated to magnetic beads", "result": "10 ρg/mL"}, {"measurement": "average connectivity to other cancer cells", "setting": "other cancer cells; 10 ng/mL peptide, average of non-ovarian cancer cell lines", "result": "about 20%"}, {"measurement": "binding activity to other cancers", "setting": "other cancer cells; pancreatic, colorectal, cervical or liver cancer", "result": "negligible binding activity"}]}]}
